Measured values: patent US9630977B2, “Cephalosporin derivatives and pharmaceutical compositions thereof” (Legochem Biosciences, Inc., priority 2011, dated 2017)
Converted amounts (≈) assume the structure as drawn.

tested on: A. baumannii 49; test: In vitro antibacterial activity test (broth microdilution); format: cell-based; conditions: Acinetobacter baumannii, 49, A. baumannii 49
Method in brief: (§1)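 Stocks at 10,240 ug/mL in DMSO, serially diluted in DMSO then water to final 0.0626–128 ug/mL (2.5% V/V DMSO). CLSI broth microdilution; MIC90, ug/mL.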

Row | SMILES | MIC90 [µg/mL]
1 | CNCCNc1c[n+](C/C=C/C2=C(C(=O)[O-])N3C(=O)[C@@H](NC(=O)/C(=N\OC(C)(C)C(=O)O)c4csc(N)n4)C3SC2)cnc1N (stereo partly shown) [Compound 51] | > 128

tested on: P. aeruginosa 6065Y; test: as above; format: cell-based; conditions: Pseudomonas aeruginosa, 6065Y
Method in brief: as §1

Row | SMILES | MIC90 [µg/mL]
2 | CNCCNc1c[n+](C/C=C/C2=C(C(=O)[O-])N3C(=O)[C@@H](NC(=O)/C(=N\OC(C)(C)C(=O)O)c4csc(N)n4)C3SC2)cnc1N (stereo partly shown) [Compound 51] | 32 (≈ 48.4 µM)

tested on: E. cloacae β19; test: as above; format: cell-based; conditions: Enterobacter cloacae
Method in brief: as §1

Row | SMILES | MIC90 [µg/mL]
3 | CNCCNc1c[n+](C/C=C/C2=C(C(=O)[O-])N3C(=O)[C@@H](NC(=O)/C(=N\OC(C)(C)C(=O)O)c4csc(N)n4)C3SC2)cnc1N (stereo partly shown) [Compound 51] | 32 (≈ 48.4 µM)

tested on: M. catarrhalis 2524; test: as above; format: cell-based; conditions: Moraxella catarrhalis, 2524
Method in brief: as §1

Row | SMILES | MIC90 [µg/mL]
4 | CNCCNc1c[n+](C/C=C/C2=C(C(=O)[O-])N3C(=O)[C@@H](NC(=O)/C(=N\OC(C)(C)C(=O)O)c4csc(N)n4)C3SC2)cnc1N (stereo partly shown) [Compound 51] | < 0.0625

tested on: K. pneumoniae β9; test: as above; format: cell-based; conditions: Klebsiella pneumoniae
Method in brief: as §1

Row | SMILES | MIC90 [µg/mL]
5 | CNCCNc1c[n+](C/C=C/C2=C(C(=O)[O-])N3C(=O)[C@@H](NC(=O)/C(=N\OC(C)(C)C(=O)O)c4csc(N)n4)C3SC2)cnc1N (stereo partly shown) [Compound 51] | 0.5 (≈ 0.757 µM)

tested on: P. aeruginosa 40; test: as above; format: cell-based; conditions: Pseudomonas aeruginosa, 40
Method in brief: as §1

Row | SMILES | MIC90 [µg/mL]
6 | CNCCNc1c[n+](C/C=C/C2=C(C(=O)[O-])N3C(=O)[C@@H](NC(=O)/C(=N\OC(C)(C)C(=O)O)c4csc(N)n4)C3SC2)cnc1N (stereo partly shown) [Compound 51] | 4 (≈ 6.05 µM)

tested on: E. coli AG100; test: as above; format: cell-based; conditions: Escherichia coli, AG100
Method in brief: as §1

Row | SMILES | MIC90 [µg/mL]
7 | CNCCNc1c[n+](C/C=C/C2=C(C(=O)[O-])N3C(=O)[C@@H](NC(=O)/C(=N\OC(C)(C)C(=O)O)c4csc(N)n4)C3SC2)cnc1N (stereo partly shown) [Compound 51] | 0.125 (≈ 0.189 µM)

tested on: P. aeruginosa 37; test: as above; format: cell-based; conditions: Pseudomonas aeruginosa, 37, P. aeruginosa 37
Method in brief: as §1

Row | SMILES | MIC90 [µg/mL]
8 | CNCCNc1c[n+](C/C=C/C2=C(C(=O)[O-])N3C(=O)[C@@H](NC(=O)/C(=N\OC(C)(C)C(=O)O)c4csc(N)n4)C3SC2)cnc1N (stereo partly shown) [Compound 51] | 32 (≈ 48.4 µM)

tested on: K. pneumoniae 2011E; test: as above; format: cell-based; conditions: Klebsiella pneumoniae, 2011E
Method in brief: as §1

Row | SMILES | MIC90 [µg/mL]
9 | CNCCNc1c[n+](C/C=C/C2=C(C(=O)[O-])N3C(=O)[C@@H](NC(=O)/C(=N\OC(C)(C)C(=O)O)c4csc(N)n4)C3SC2)cnc1N (stereo partly shown) [Compound 51] | 0.5 (≈ 0.757 µM)

tested on: K. pneumoniae β13; test: as above; format: cell-based; conditions: Klebsiella pneumoniae
Method in brief: as §1

Row | SMILES | MIC90 [µg/mL]
10 | CNCCNc1c[n+](C/C=C/C2=C(C(=O)[O-])N3C(=O)[C@@H](NC(=O)/C(=N\OC(C)(C)C(=O)O)c4csc(N)n4)C3SC2)cnc1N (stereo partly shown) [Compound 51] | 0.5 (≈ 0.757 µM)

tested on: K. pneumoniae β11; test: as above; format: cell-based; conditions: Klebsiella pneumoniae
Method in brief: as §1

Row | SMILES | MIC90 [µg/mL]
11 | CNCCNc1c[n+](C/C=C/C2=C(C(=O)[O-])N3C(=O)[C@@H](NC(=O)/C(=N\OC(C)(C)C(=O)O)c4csc(N)n4)C3SC2)cnc1N (stereo partly shown) [Compound 51] | 32 (≈ 48.4 µM)

tested on: A. baumannii 52; test: as above; format: cell-based; conditions: Acinetobacter baumannii, 52
Method in brief: as §1

Row | SMILES | MIC90 [µg/mL]
12 | CNCCNc1c[n+](C/C=C/C2=C(C(=O)[O-])N3C(=O)[C@@H](NC(=O)/C(=N\OC(C)(C)C(=O)O)c4csc(N)n4)C3SC2)cnc1N (stereo partly shown) [Compound 51] | 128 (≈ 194 µM)

tested on: P. aeruginosa 1912E; test: as above; format: cell-based; conditions: Pseudomonas aeruginosa, 1912E
Method in brief: as §1

Row | SMILES | MIC90 [µg/mL]
13 | CNCCNc1c[n+](C/C=C/C2=C(C(=O)[O-])N3C(=O)[C@@H](NC(=O)/C(=N\OC(C)(C)C(=O)O)c4csc(N)n4)C3SC2)cnc1N (stereo partly shown) [Compound 51] | 2 (≈ 3.03 µM)

tested on: P. aeruginosa 43; test: as above; format: cell-based; conditions: Pseudomonas aeruginosa, 43
Method in brief: as §1

Row | SMILES | MIC90 [µg/mL]
14 | CNCCNc1c[n+](C/C=C/C2=C(C(=O)[O-])N3C(=O)[C@@H](NC(=O)/C(=N\OC(C)(C)C(=O)O)c4csc(N)n4)C3SC2)cnc1N (stereo partly shown) [Compound 51] | 64 (≈ 96.9 µM)

tested on: K. pneumoniae β10; test: as above; format: cell-based; conditions: Klebsiella pneumoniae
Method in brief: as §1

Row | SMILES | MIC90 [µg/mL]
15 | CNCCNc1c[n+](C/C=C/C2=C(C(=O)[O-])N3C(=O)[C@@H](NC(=O)/C(=N\OC(C)(C)C(=O)O)c4csc(N)n4)C3SC2)cnc1N (stereo partly shown) [Compound 51] | 0.25 (≈ 0.378 µM)

tested on: K. pneumoniae β14; test: as above; format: cell-based; conditions: Klebsiella pneumoniae
Method in brief: as §1

Row | SMILES | MIC90 [µg/mL]
16 | CNCCNc1c[n+](C/C=C/C2=C(C(=O)[O-])N3C(=O)[C@@H](NC(=O)/C(=N\OC(C)(C)C(=O)O)c4csc(N)n4)C3SC2)cnc1N (stereo partly shown) [Compound 51] | 0.5 (≈ 0.757 µM)

tested on: E. coli β4; test: as above; format: cell-based; conditions: Escherichia coli
Method in brief: as §1

Row | SMILES | MIC90 [µg/mL]
17 | CNCCNc1c[n+](C/C=C/C2=C(C(=O)[O-])N3C(=O)[C@@H](NC(=O)/C(=N\OC(C)(C)C(=O)O)c4csc(N)n4)C3SC2)cnc1N (stereo partly shown) [Compound 51] | 0.125 (≈ 0.189 µM)

tested on: A. calcoaceticus ATCC15473; test: as above; format: cell-based; conditions: Acinetobacter calcoaceticus, ATCC15473, A. calcoaceticus ATCC15473
Method in brief: as §1

Row | SMILES | MIC90 [µg/mL]
18 | CNCCNc1c[n+](C/C=C/C2=C(C(=O)[O-])N3C(=O)[C@@H](NC(=O)/C(=N\OC(C)(C)C(=O)O)c4csc(N)n4)C3SC2)cnc1N (stereo partly shown) [Compound 51] | 0.5 (≈ 0.757 µM)

tested on: A. baumannii 46; test: as above; format: cell-based; conditions: Acinetobacter baumannii, 46, A. baumannii 46
Method in brief: as §1

Row | SMILES | MIC90 [µg/mL]
19 | CNCCNc1c[n+](C/C=C/C2=C(C(=O)[O-])N3C(=O)[C@@H](NC(=O)/C(=N\OC(C)(C)C(=O)O)c4csc(N)n4)C3SC2)cnc1N (stereo partly shown) [Compound 51] | 8 (≈ 12.1 µM)
